Measurements reported in US11059815B2, “Synthesis of small molecule histone deacetylase 6 degraders, compounds formed thereby, and pharmaceutical compositions containing them” (Wisconsin Alumni Research Foundation, priority 2018, dated 2021).

How the values were obtained:
acetylated tubulin = experiment: Western blot of acetylated tubulin in MM1S cells; type: cell-based, human; settings: 100 nM
Source text: FIGS. 12A, 12B, and 12C are a series of western blots showing that degrader 12d selectively promotes HDAC6 degradation in MM1S cells.
To further examine the selectivity of the new generation of HDAC6 degraders, compound 12d was compared to SAHA, Next-A, degrader 1 and pan-inhibitor 2 for change of acetylated a-tubulin and acetylated histone H3.
When the cells reached 90% confluence, they were harvested and plated 1×10^6 cells per well in 6-well plate. After overnight seeding, the cells were treated with a solution of compounds or vehicle in culture medium. The culture medium was removed after treatment and then washed twice with cold PBS. To obtain whole cell lysate, all cells were treated with RIPA lysis buffer (25 mM Tris, pH 7-8, 150 mM NaCl, 0.1% SDS, 0.5% sodium deoxycholate, 1% Triton X-100, protease inhibitor cocktail (Roche, 1 tablet per 10 mL) and 1 mM PMSF) on ice for 10 minutes. Supernatant was collected after spinning down at 16,000 g at 4° C. for 15 minutes. Protein concentration was measured by using the Pierce BCA protein assay (Thermo Fisher Scientific). About 10-40 μg of total protein was mixed with 4× Laemmli Loading Dye (250 mM Tris, pH 6.8, 40% glycerol, 5% SDS, 0.005% bromophenol blue, 4% BME) and heated at 95-100° C. for 5 minutes. The heated sample was then subjected to 7.5-12% SDS-PAGE and transferred to PVDF membrane (Bio-Rad,). The membrane was blocked in 5% non-fat milk (Bio-rad) in TBS-T washing buffer (137 mM NaCl, 20 mM Tris, 0.1% Tween) and then incubated with primary antibodies at 4° C. overnight. […] The Immunoblot was generated by ChemiDoc MP Imaging Systems (Bio-Rad) and analyzed by Image J software (only available for download online at https://imagej.net/Downloads). […]
The activity of all eleven “n+4” VHL-based potential degraders to suppress HDAC6 expression was tested at 100 nM and compared to CRBN degrader 2 in MM1S cells. The resulting cells were analyzed for HDAC6 expression by in-cell ELISA (FIG. 15). […]

HDAC6 = target: T1, HDAC6 (Homo sapiens, UniProt Q9UBN7); experiment: Immunoblot of HDAC6 degradation in MM.1S cells (second generation degraders); type: cell-based; settings: 6 nM
T1 construct: endogenous in cells; host or cells: MM1S (ATCC CRL-2974)
T1 sequence (Q9UBN7 1-1215): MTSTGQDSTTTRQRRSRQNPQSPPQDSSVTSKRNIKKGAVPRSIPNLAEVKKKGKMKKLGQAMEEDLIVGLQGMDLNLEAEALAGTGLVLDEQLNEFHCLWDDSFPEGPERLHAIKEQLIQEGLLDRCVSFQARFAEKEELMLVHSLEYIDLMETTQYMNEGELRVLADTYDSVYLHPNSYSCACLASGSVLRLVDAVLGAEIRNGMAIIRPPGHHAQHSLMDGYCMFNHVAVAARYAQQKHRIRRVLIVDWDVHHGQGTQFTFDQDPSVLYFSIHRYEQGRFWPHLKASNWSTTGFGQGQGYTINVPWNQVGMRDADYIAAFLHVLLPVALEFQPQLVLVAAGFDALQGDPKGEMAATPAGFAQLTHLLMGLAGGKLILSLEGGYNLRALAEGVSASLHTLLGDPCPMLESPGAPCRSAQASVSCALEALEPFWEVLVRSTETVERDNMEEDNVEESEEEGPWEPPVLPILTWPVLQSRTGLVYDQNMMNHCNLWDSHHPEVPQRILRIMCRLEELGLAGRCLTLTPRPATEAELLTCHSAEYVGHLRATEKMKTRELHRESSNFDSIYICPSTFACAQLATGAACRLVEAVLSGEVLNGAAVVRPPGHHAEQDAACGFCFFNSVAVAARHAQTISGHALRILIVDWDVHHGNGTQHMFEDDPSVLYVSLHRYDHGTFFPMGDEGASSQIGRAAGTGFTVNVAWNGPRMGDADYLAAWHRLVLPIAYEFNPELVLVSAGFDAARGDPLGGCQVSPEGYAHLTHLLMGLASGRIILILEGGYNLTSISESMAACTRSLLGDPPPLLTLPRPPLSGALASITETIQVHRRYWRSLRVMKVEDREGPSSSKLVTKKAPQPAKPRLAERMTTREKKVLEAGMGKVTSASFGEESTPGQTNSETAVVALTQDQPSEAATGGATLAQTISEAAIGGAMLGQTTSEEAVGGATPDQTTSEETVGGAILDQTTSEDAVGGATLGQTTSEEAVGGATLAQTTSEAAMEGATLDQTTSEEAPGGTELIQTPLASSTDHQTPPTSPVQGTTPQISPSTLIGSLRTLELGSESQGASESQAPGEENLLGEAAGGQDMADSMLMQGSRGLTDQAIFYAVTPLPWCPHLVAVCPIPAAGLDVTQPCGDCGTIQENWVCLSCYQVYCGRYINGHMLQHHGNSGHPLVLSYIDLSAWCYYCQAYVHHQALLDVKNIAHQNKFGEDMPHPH
Method: FIG. 6A: Immunoblot showing degradation activity of 18x, 18a, and 18b against HDAC1, HDAC2, HDAC4, and HDAC6 (with β-actin as a control) at serial dilutions of 10 μM, 1 μM, and 100 nM.
FIG. 6B: Immunoblot showing degradation activity of 20a, 20b, 20c, 18c, 18a, and 18b against HDAC4 and HDAC6 (with α-tubulin as a control) at dilutions of 5 nM and 1 nM.
FIG. 6C: Immunoblot showing degradation activity of 18b and 9C against HDAC1, HDAC2, HDAC4, HDAC6, and HDAC8 (with β-actin as a control) at dilutions of 6, 19, 56, 167, and 500 nM.
Some of these HDAC6 degraders could degrade HDAC6 selectively at low nM concentrations in MM.
When the cells reached 90% confluence, they were harvested and plated 1×10^6 cells per well in 6-well plate. After overnight seeding, the cells were treated with a solution of compounds or vehicle in culture medium. The culture medium was removed after treatment and then washed twice with cold PBS. […] Protein concentration was measured by using the Pierce BCA protein assay (Thermo Fisher Scientific). […] The Immunoblot was generated by ChemiDoc MP Imaging Systems (Bio-Rad) and analyzed by Image J software (only available for download online at https://imagej.net/Downloads). […]

Row | SMILES | change of acetylated tubulin (acetylated tubulin) | HDAC6 depletion (HDAC6)
1 | CCCCN(Cc1ccc(C(=O)NO)cc1)C(=O)Nc1ccc(OCCCCCn2cc(CNc3cccc4c3C(=O)N(C3CCC(=O)NC3=O)C4=O)nn2)cc1 (stereo not drawn) [Compound 12d, 4-((1-butyl-3-(4-((5-(4-(((2-(2,6-dioxopiperidin-3-yl)-1,3-dioxoisoindolin-4-yl)amino)methyl)-1H-1,2,3-triazol-1-yl)pentyl)oxy)phenyl)ureido)methyl)-N-hydroxybenzamide] | increased | –
2 | CCCCN(Cc1ccc(C(=O)NO)cc1)C(=O)Nc1ccccc1 [Next-A, 4-[[butyl[(phenylamino)carbonyl]amino]methyl]-N-hydroxy-benzamide, reference compound] | didn't | –
3 | CCCCN(Cc1ccc(C(=O)NO)cc1)C(=O)Nc1ccc(OCCCn2cc(CNc3ccc4c(c3)C(=O)N(C3CCC(=O)NC3=O)C4=O)nn2)cc1 (stereo not drawn) [Compound 12m, 4-((1-butyl-3-(4-(3-(4-(((2-(2,6-dioxopiperidin-3-yl)-1,3-dioxoisoindolin-5-yl)amino)methyl)-1H-1,2,3-triazol-1-yl)propoxy)phenyl)ureido)methyl)-N-hydroxybenzamide] | – | completely depleted
